Assay results from ChEMBL document CHEMBL1201862, “PubChem BioAssay data set” (2004).
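Exposure lasted 48 hours, with cells grown in 96-well plates and compounds tested at five concentrations. Abbreviation: GI50, concentration required for 50% inhibition of growth.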 The source made the active and inactive calls. Rule as the data show it: active = GI50 up to about 1.1 µM and inactive = higher. Residues, ends and D or L forms follow the SMILES beside them.

Key:
Assay in all cases: NCI tumour cell line growth inhibition, 48 h
DU-145 = tested on: DU-145
OVCAR-8 = tested on: OVCAR-8
HOP-92 = tested on: HOP-92
SNB-19 = tested on: SNB-19
OVCAR-3 = tested on: OVCAR-3
SW-620 = tested on: SW-620
MCF7 = tested on: MCF7
SK-OV-3 = tested on: SK-OV-3
ACHN = tested on: ACHN
CCRF-CEM = tested on: CCRF-CEM
SK-MEL-2 = tested on: SK-MEL-2
NCI/ADR-RES = tested on: NCI/ADR-RES
K562 = tested on: K562
TK-10 = tested on: TK-10
M14 = tested on: M14
HT-29 = tested on: HT-29
SR = tested on: SR
SK-MEL-5 = tested on: SK-MEL-5
DMS-273 = tested on: DMS-273

C[C@]1(O)O[C@@H]2OCC[C@@H]2C2=C1C(=O)c1ccccc1C2=O
GI50 (DU-145): 16.7 µM (inactive)
GI50 (OVCAR-8): 15.3 µM (inactive)
GI50 (HOP-92): 12.8 µM (inactive)
GI50 (SNB-19): 18 µM (inactive)
GI50 (OVCAR-3): 9.66 µM (inactive)
GI50 (SW-620): 18.4 µM (inactive)
GI50 (MCF7): 6.46 µM (inactive)
GI50 (SK-OV-3): 21.9 µM (inactive)
GI50 (ACHN): 17.7 µM (inactive)
GI50 (CCRF-CEM): 15.4 µM (inactive)
GI50 (SK-MEL-2): 17.4 µM (inactive)
GI50 (NCI/ADR-RES): 19.7 µM (inactive)
GI50 (K562): 15.7 µM (inactive)
GI50 (TK-10): 20.4 µM (inactive)
GI50 (M14): 11.3 µM (inactive)
GI50 (HT-29): 29.9 µM (inactive)
GI50 (SR): 10.7 µM (inactive)
GI50 (SK-MEL-5): 12.4 µM (inactive)

CCOC(=O)c1c2ccc(/C=C/c3ccccc3)ccc-2c(C(=O)OCC)c1N
GI50 (HOP-92): > 100 µM (inactive)
GI50 (SNB-19): > 100 µM (inactive)
GI50 (OVCAR-3): > 100 µM (inactive)
GI50 (SW-620): > 100 µM (inactive)
GI50 (DMS-273): > 100 µM (inactive)
GI50 (SK-OV-3): 86.1 µM (inactive)
GI50 (ACHN): > 100 µM (inactive)
GI50 (CCRF-CEM): > 100 µM (inactive)
GI50 (SK-MEL-2): > 100 µM (inactive)
GI50 (K562): > 100 µM (inactive)
GI50 (TK-10): > 100 µM (inactive)
GI50 (M14): > 100 µM (inactive)
GI50 (HT-29): 95.3 µM (inactive)
GI50 (SR): 4.2 µM (inactive)
GI50 (SK-MEL-5): > 100 µM (inactive)

CSC1=N/C(=C\c2cccs2)C(=O)N1CN1CCOCC1
GI50 (DU-145): 65.9 µM (inactive)
GI50 (OVCAR-8): 28.8 µM (inactive)
GI50 (HOP-92): 4.82 µM (inactive)
GI50 (SNB-19): 45.6 µM (inactive)
GI50 (OVCAR-3): > 100 µM (inactive)
GI50 (SW-620): 55 µM (inactive)
GI50 (MCF7): 32.2 µM (inactive)
GI50 (SK-OV-3): > 100 µM (inactive)
GI50 (ACHN): 37.2 µM (inactive)
GI50 (CCRF-CEM): 27.3 µM (inactive)
GI50 (SK-MEL-2): 52.4 µM (inactive)
GI50 (NCI/ADR-RES): 14.3 µM (inactive)
GI50 (K562): 43.8 µM (inactive)
GI50 (TK-10): 86.7 µM (inactive)
GI50 (M14): 61.7 µM (inactive)
GI50 (HT-29): 24.9 µM (inactive)
GI50 (SR): 17.4 µM (inactive)
GI50 (SK-MEL-5): 41.1 µM (inactive)

CNC(=O)C1(N)c2ccccc2C=Cc2ccccc21
GI50 (DU-145): > 100 µM (inactive)
GI50 (OVCAR-8): > 100 µM (inactive)
GI50 (HOP-92): > 100 µM (inactive)
GI50 (SNB-19): > 100 µM (inactive)
GI50 (OVCAR-3): > 100 µM (inactive)
GI50 (SW-620): > 100 µM (inactive)
GI50 (MCF7): > 100 µM (inactive)
GI50 (SK-OV-3): > 100 µM (inactive)
GI50 (ACHN): > 100 µM (inactive)
GI50 (CCRF-CEM): > 100 µM (inactive)
GI50 (SK-MEL-2): > 100 µM (inactive)
GI50 (NCI/ADR-RES): > 100 µM (inactive)
GI50 (K562): > 100 µM (inactive)
GI50 (TK-10): > 100 µM (inactive)
GI50 (M14): > 100 µM (inactive)
GI50 (HT-29): > 100 µM (inactive)
GI50 (SR): > 100 µM (inactive)
GI50 (SK-MEL-5): > 100 µM (inactive)

CC1(C)CC2C=C(C=O)C3(C=O)CC3(C)C2C1 (stereo not drawn)
GI50 (DU-145): 5.45 µM (inactive)
GI50 (OVCAR-8): 1.95 µM (inactive)
GI50 (HOP-92): 1.95 µM (inactive)
GI50 (SNB-19): 11.8 µM (inactive)
GI50 (OVCAR-3): 0.944 µM (active)
GI50 (SW-620): 0.582 µM (active)
GI50 (MCF7): 1.34 µM (inactive)
GI50 (SK-OV-3): 3.43 µM (inactive)
GI50 (ACHN): 1.49 µM (inactive)
GI50 (CCRF-CEM): 0.0468 µM (active)
GI50 (SK-MEL-2): 2.07 µM (inactive)
GI50 (NCI/ADR-RES): 1.76 µM (inactive)
GI50 (K562): 1.1 µM (active)
GI50 (TK-10): 2.39 µM (inactive)
GI50 (M14): 2.29 µM (inactive)
GI50 (HT-29): 1.41 µM (inactive)
GI50 (SR): 0.218 µM (active)
GI50 (SK-MEL-5): 1.64 µM (inactive)

O=c1[nH]c(=O)n(C2CC(O)C(CO)O2)cc1OS(=O)(=O)C(F)(F)F (stereo not drawn)
GI50 (OVCAR-8): > 100 µM (inactive)
GI50 (HOP-92): > 100 µM (inactive)
GI50 (SNB-19): > 100 µM (inactive)
GI50 (OVCAR-3): > 100 µM (inactive)
GI50 (SW-620): > 100 µM (inactive)
GI50 (DMS-273): > 100 µM (inactive)
GI50 (SK-OV-3): > 100 µM (inactive)
GI50 (ACHN): > 100 µM (inactive)
GI50 (CCRF-CEM): > 100 µM (inactive)
GI50 (SK-MEL-2): > 100 µM (inactive)
GI50 (K562): > 100 µM (inactive)
GI50 (TK-10): > 100 µM (inactive)
GI50 (M14): > 100 µM (inactive)
GI50 (HT-29): > 100 µM (inactive)
GI50 (SK-MEL-5): > 100 µM (inactive)

C=C(Cl)C(Cl)(CBr)CCCC(C)(C)Cl (stereo not drawn)
GI50 (DU-145): 10.9 µM (inactive)
GI50 (OVCAR-8): 18.7 µM (inactive)
GI50 (HOP-92): 2.41 µM (inactive)
GI50 (SNB-19): 14.7 µM (inactive)
GI50 (OVCAR-3): 2.47 µM (inactive)
GI50 (SW-620): 20.4 µM (inactive)
GI50 (MCF7): 7.1 µM (inactive)
GI50 (SK-OV-3): > 100 µM (inactive)
GI50 (ACHN): 6.68 µM (inactive)
GI50 (CCRF-CEM): > 33.7 µM (inactive)
GI50 (SK-MEL-2): 11.4 µM (inactive)
GI50 (NCI/ADR-RES): 30.4 µM (inactive)
GI50 (K562): > 42 µM (inactive)
GI50 (TK-10): 2.26 µM (inactive)
GI50 (M14): > 75.2 µM (inactive)
GI50 (HT-29): 1.97 µM (inactive)
GI50 (SR): > 53 µM (inactive)
GI50 (SK-MEL-5): 29.9 µM (inactive)

CC(=O)NC(CO)C(=O)NC(Cc1ccc(O)cc1)C(=O)NCC(N)=O (stereo not drawn) (Ac-Ser-Tyr-Gly-NH2; configuration not given here)
GI50 (DU-145): > 100 µM (inactive)
GI50 (OVCAR-8): > 100 µM (inactive)
GI50 (HOP-92): > 100 µM (inactive)
GI50 (SNB-19): > 100 µM (inactive)
GI50 (OVCAR-3): > 100 µM (inactive)
GI50 (SW-620): > 100 µM (inactive)
GI50 (MCF7): > 100 µM (inactive)
GI50 (SK-OV-3): > 100 µM (inactive)
GI50 (ACHN): > 100 µM (inactive)
GI50 (CCRF-CEM): > 100 µM (inactive)
GI50 (SK-MEL-2): > 100 µM (inactive)
GI50 (NCI/ADR-RES): > 100 µM (inactive)
GI50 (K562): > 100 µM (inactive)
GI50 (TK-10): > 100 µM (inactive)
GI50 (M14): > 100 µM (inactive)
GI50 (HT-29): > 100 µM (inactive)
GI50 (SR): > 100 µM (inactive)
GI50 (SK-MEL-5): > 100 µM (inactive)
